assay: in vitro; settings: human, hela cells, % viability

Row | SMILES | viability at 28.5 h, 10 µM [%]
1 | CCc1ccc(/C=N/N2CCN(Cc3cccc4ccccc34)CC2)cc1 [CBK262986] | 104
2 | O=C1C(=CNCCC(c2ccccc2)c2ccccc2)C(=O)c2ccccc21 [CBK262987] | 97
3 | O=C(COc1cccc2ccccc12)NNC(=O)Cc1ccc(Cl)cc1 [CBK262988] | 112
4 | CCOC(=O)N1CCN(C(=O)COc2cccc3ccccc23)CC1 [CBK262992] | 93
5 | Cc1cccc(C(=O)NNC(=O)COc2cccc3ccccc23)c1O [CBK262993] | 87.7
6 | N/C(Cc1ccc([N+](=O)[O-])cc1)=N\OC(=O)COc1cccc2ccccc12 [CBK262994] | 92.8
7 | O=C(CSc1nnc(-c2ccc(Cl)cc2)n1-c1ccccc1)N/N=C/c1ccco1 [CBK262996] | 91.6
8 | NS(=O)(=O)c1ccc(CCNC=C2C(=O)c3ccccc3C2=O)cc1 [CBK262997] | 99
9 | N/C(=N\OC(=O)COc1cccc2ccccc12)c1ccccn1 [CBK262999] | 96.2
10 | O=C(CSc1nnc(-c2ccc(Cl)cc2)n1-c1ccccc1)N/N=C/c1ccccn1 [CBK263001] | 94.6
11 | C(=N\N1CCN(Cc2cccc3ccccc23)CC1)/c1ccncc1 [CBK263003] | 94.6
12 | NC(=O)C(=O)Nc1nc(-c2ccccc2)cs1 [CBK263005] | 98.4
13 | CC1=NN(c2ccc([N+](=O)[O-])cc2)C(=O)/C1=C\NCCc1ccc(S(N)(=O)=O)cc1 [CBK263006] | 92.6
14 | O=C1C(=CNCCN2CCOCC2)C(=O)c2ccccc21 [CBK263008] | 109
15 | Cc1ccc(/C(N)=N/OC(=O)COc2cccc3ccccc23)cc1 [CBK263009] | 98.5
16 | NNC(=O)CSc1nnc(-c2ccc(Cl)cc2)n1-c1ccccc1 [CBK263010] | 81.3
17 | Brc1cccc(/C=N/N2CCN(Cc3cccc4ccccc34)CC2)c1 [CBK263011] | 98
18 | Cc1cccc(N/C=C(/C#N)c2nc(-c3ccc4c(c3)OCO4)cs2)c1C [CBK263013] | 96.4
19 | O=C(COc1cccc2ccccc12)Nc1cccnc1 [CBK263015] | 115
20 | COc1ccc(NC(=O)c2cc([N+](=O)[O-])ccc2N2CCN(C)CC2)cc1 [CBK263017] | 102
21 | CCOC(=O)c1c(NC(=O)Cn2nc(C(F)(F)F)c(Cl)c2C)sc2c1CCCC2 [CBK263019] | 98.5

Row | SMILES | viability at 28.5 h, 10 µM [%]
22 | O=C(c1cccc(F)c1)N1CCN(Cc2ccccn2)CC1 [CBK263023] | 88.5
23 | Cc1cc(C)nc(Nc2ncc(O)n2-c2ccccc2C)n1 [CBK263024] | 91.2
24 | Cc1ccc(OCCOc2cccc(/C=N/n3cnnc3)c2)cc1 [CBK263028] | 111
25 | CCC(Sc1nnc2c3ccccc3n(C)c2n1)C(=O)Nc1sc2c(c1C#N)CCCC2 (centres unmarked) [CBK263031] | 92.6
26 | COc1cc(NC(=O)c2cc([N+](=O)[O-])ccc2N2CCN(C)CC2)c2ncccc2c1 [CBK263034] | 90
27 | Cc1cc(C)c2c(c1)-c1c(ssc1=S)C(C)(C)N2C(=O)CSc1nncn1C [CBK263035] | 106
28 | COc1ccc(/C=N/NS(=O)(=O)c2ccc(C)cc2)cc1CSc1ccccn1 [CBK263036] | 96
29 | O=C(Cc1ccccc1)N1CCN(Cc2ccc3ccccc3c2)CC1 [CBK263037] | 112
30 | Cc1cc(C)c2c(c1)-c1c(ssc1=S)C(C)(C)N2C(=O)CSc1nnc[nH]1 [CBK263038] | 88.5
31 | O=C(Cc1ccccc1)N1CCN(Cc2ccccn2)CC1 [CBK263039] | 88.6
32 | C=CCn1c2ccccc2c2nnc(SC(CC)C(=O)N3c4ccccc4Sc4ccccc43)nc21 (centres unmarked) [CBK263040] | 90.7
33 | Cc1ccnc(N2C(=O)c3ccc(C(=O)c4ccc5c(c4)C(=O)N(c4cc(C)ccn4)C5=O)cc3C2=O)c1 [CBK263041] | 93.4
34 | CC1CCc2c(sc(NC(=O)COc3ccccc3)c2C(=O)Nc2ccccc2Cl)C1 (centres unmarked) [CBK263044] | 101
35 | COc1cccc(C2Nc3ccc4ccccc4c3C3=C2C(=O)CC(C)(C)C3)c1OCC(=O)O (centres unmarked) [CBK263045] | 89.8
36 | COC(=O)c1c(NC(=O)Cn2nc([N+](=O)[O-])c(Cl)c2C)sc2c1CCCC2 [CBK263047] | 83.9
37 | CN1CCN(c2ccc(/C=c3\sc4nc5ccccc5n4c3=O)cc2[N+](=O)[O-])CC1 [CBK263048] | 89.3
38 | O=C(O)CCSc1nnnn1C1CCCCC1 [CBK263052] | 88.9
39 | O=C(NCCCn1ccnc1)c1cnn2c(C(F)(F)F)cc(-c3cccs3)nc12 [CBK263060] | 88.7
40 | Cc1c(NC(=O)c2cn3c4c(c(N5CCN(C)CC5)c(F)cc4c2=O)OCN3C)c(=O)n(-c2ccccc2)n1C [CBK263061] | 92.9
41 | O=C(NCCN1CCOCC1)c1cnn2c(-c3ccccc3)cc(-c3ccccc3)nc12 [CBK263062] | 94.5
42 | CC1CCc2c(sc(NC(=O)Cn3cnc([N+](=O)[O-])n3)c2C(N)=O)C1 (centres unmarked) [CBK263064] | 91.3

Row | SMILES | viability at 28.5 h, 10 µM [%]
43 | CCC(=O)Nc1ccc2oc(-c3cccc(C)c3)nc2c1 [CBK263065] | 89.6
44 | Cc1cc(C)c2oc(-c3ccc(C)c(NC(=O)COc4ccccc4C)c3)nc2c1 [CBK263067] | 103
45 | CN(CP(=O)(O)CCc1ccccc1)S(C)(=O)=O [CBK263068] | 95.1
46 | Cc1cccc(N2C(=O)c3ccc(C(=O)c4ccc5c(c4)C(=O)N(c4cccc(C)n4)C5=O)cc3C2=O)n1 [CBK263069] | 87.8
47 | CCn1cc(C(=O)O)c(=O)c2cc(F)c(N(C)CCc3ccc(OC)c(OC)c3)cc21 [CBK263070] | 97.1
48 | Cc1c(N2C(=O)/C(=C3\C(=O)Nc4ccc([N+](=O)[O-])cc43)SC2=S)c(=O)n(-c2ccccc2)n1C [CBK263071] | 115
49 | O=C(COc1ccc(Br)cc1)Nc1ccc(Cl)c(-c2nc3ccccc3[nH]2)c1 [CBK263075] | 92
50 | COc1ccc(N2C(=O)CC(NNC(N)=O)C2=O)cc1 (centres unmarked) [CBK263080] | 92.1
51 | Cc1ccc(C(=O)Cn2c3ccccc3n3ncnc23)cc1 [CBK263081] | 99.6
52 | CC(=O)Oc1ccc(NC(=O)CC2Nc3cc(C)c(C)cc3NC2=O)cc1 (centres unmarked) [CBK263088] | 89.5
53 | C(=C\CSc1nc2ccccc2[nH]1)/CSc1nc2ccccc2[nH]1 [CBK263090] | 107
54 | Nc1nnc(SC/C=C/CSc2nnc(N)s2)s1 [CBK263092] | 90.3
55 | O=C(CCNc1n[nH]c(=O)[nH]c1=O)N/N=C\c1ccccc1F [CBK263093] | 86.3
56 | COc1cccc(N2C(=O)/C(=C/c3ccc(O)c(O)c3)SC2=S)c1 [CBK263096] | 94.7
57 | O=C(Cn1c2ccccc2n2ncnc12)c1ccc(-c2ccccc2)cc1 [CBK263097] | 106
58 | Cc1ccc(S(=O)(=O)N/C(=N/C(C)C(=O)O)c2ccccc2)cc1 (centres unmarked) [CBK263099] | 92.2
59 | Cc1ccc(OCC(=O)O/N=C(\N)Cc2ccc([N+](=O)[O-])cc2)c(C)c1 [CBK263102] | 101
60 | NS(=O)(=O)c1ccc(CCNC(=O)c2ccc(C#CC3(O)CCCCC3)cc2)cc1 [CBK263104] | 93.9
61 | O=S(=O)(/N=C(/NS(=O)(=O)c1cccc2ccccc12)c1ccccc1)c1ccccc1 [CBK263105] | 112
62 | COc1cccc(/C=N\NC(=O)CN2CCN(Cc3ccccc3)CC2)c1O [CBK263106] | 97.1
63 | Cc1nc2n(/N=C/c3ccc([N+](=O)[O-])cc3)c3ccccc3n2c1C#N [CBK263107] | 88.4

Row | SMILES | viability at 28.5 h, 10 µM [%]
64 | COc1cc(CN2CCN(Cc3cccc([N+](=O)[O-])c3)CC2)c([N+](=O)[O-])cc1OC [CBK263111] | 99.9
65 | CC1(C)CN=C(N2CCN(c3c4c(c(C#N)c5nc6ccccc6n35)CCC4)CC2)S1 [CBK263113] | 103
66 | Cc1ccc(C(=O)N/C(=C\c2cccc([N+](=O)[O-])c2)c2n[nH]c(=S)[nH]2)cc1 [CBK263114] | 87
67 | CC(=O)NS(=O)(=O)c1ccc(NC(=N)Nc2nc(C)cc(C)n2)cc1 [CBK263117C] | 90.1
68 | O=C(O)/C=C/c1cn(-c2ccccc2)nc1-c1cccs1 [CBK263119] | 102
69 | O=C(CCN1C(=O)c2cccc([N+](=O)[O-])c2C1=O)Nc1ccccc1Cl [CBK263121] | 91.6
70 | N#Cc1c2c(c(Nc3ccc(C4CCCCC4)cc3)n3c1nc1ccccc13)CCC2 [CBK263122] | 95.1
71 | Cc1c(Cc2ccccc2)c(N2CCN(C3c4ccccc4-c4ccccc43)CC2)n2c(nc3ccccc32)c1C#N [CBK263124] | 111
72 | O=C(Nc1cccc(-c2nc3ncccc3o2)c1)c1cccc(OCc2ccccc2)c1 [CBK263126] | 86.2
73 | Cc1cc(I)ccc1NC(=O)CCN1C(=O)c2cccc([N+](=O)[O-])c2C1=O [CBK263128] | 88.3
74 | O=C(Nc1cccnc1)C1c2ccccc2Oc2ccccc21 [CBK263129] | 98.6
75 | CCOC(=O)CN1C(c2ccccc2O)Nc2ccc(Br)cc2C1c1ccccc1 (centres unmarked) [CBK263130] | 90.5
76 | COC(=O)CN1C(c2ccccc2O)Nc2ccc(Br)cc2C1c1ccccc1 (centres unmarked) [CBK263133] | 91.1
77 | COC(=O)c1ccc(NC(=O)CCN2C(=O)c3cccc([N+](=O)[O-])c3C2=O)cc1 [CBK263137] | 98.1
78 | O=C(Nc1cccc(-c2nc3ncccc3o2)c1)c1ccc(OCc2ccccc2)cc1 [CBK263139] | 102
79 | COc1ccc(C2=Nc3ccc(Br)cc3C(c3ccccc3)N2CC(=O)NN)cc1 (centres unmarked) [CBK263141] | 95.8
80 | CCn1c2ccccc2c2cc(CN3CCN(Cc4cccc(F)c4)CC3)ccc21 [CBK263143] | 90.5
81 | NNc1nccc(Nc2ccccc2C(=O)O)n1 [CBK263145] | 95.9
82 | O=C1CSC(c2cn(-c3ccccc3)nc2-c2ccc(Br)cc2)N1Cc1ccccc1 (centres unmarked) [CBK263146] | 97.4
83 | COc1ccc(CCNc2c3c(c(C#N)c4nc5ccccc5n24)CCC3)cc1OC [CBK263147] | 97.9

— PMC12040169 (PLOS Biology, 2025)
